Consider 1 molecule from publication PMC7108291 (Spectrochimica Acta. Part A, Molecular and Biomolecular …, 2009).

What all share (assay): tryptophan fluorescence quenching titration at […] °C
Common to all, as to assay type: binding

For test [1], the target named is DNase I (Bos taurus, UniProt P00639).
Test [2] deals with Taq polymerase (Thermus aquaticus, UniProt P19821).
The target in test [3] is T1, RNase A (Bos taurus, UniProt P61823).
T1 sequence (P61823 27-150): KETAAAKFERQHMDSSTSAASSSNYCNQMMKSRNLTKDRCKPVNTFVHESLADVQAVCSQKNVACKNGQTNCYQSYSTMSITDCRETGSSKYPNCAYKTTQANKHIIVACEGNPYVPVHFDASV

Chain of DNase I (P00639 23-282): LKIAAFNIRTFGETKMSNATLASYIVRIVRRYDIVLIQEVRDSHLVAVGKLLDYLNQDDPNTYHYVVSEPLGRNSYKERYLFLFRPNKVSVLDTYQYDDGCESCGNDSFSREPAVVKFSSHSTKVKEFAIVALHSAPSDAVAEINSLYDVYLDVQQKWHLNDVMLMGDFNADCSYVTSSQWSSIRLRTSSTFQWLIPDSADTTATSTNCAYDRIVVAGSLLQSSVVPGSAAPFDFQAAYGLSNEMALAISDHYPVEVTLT
Chain of Taq polymerase (P19821 whole entry): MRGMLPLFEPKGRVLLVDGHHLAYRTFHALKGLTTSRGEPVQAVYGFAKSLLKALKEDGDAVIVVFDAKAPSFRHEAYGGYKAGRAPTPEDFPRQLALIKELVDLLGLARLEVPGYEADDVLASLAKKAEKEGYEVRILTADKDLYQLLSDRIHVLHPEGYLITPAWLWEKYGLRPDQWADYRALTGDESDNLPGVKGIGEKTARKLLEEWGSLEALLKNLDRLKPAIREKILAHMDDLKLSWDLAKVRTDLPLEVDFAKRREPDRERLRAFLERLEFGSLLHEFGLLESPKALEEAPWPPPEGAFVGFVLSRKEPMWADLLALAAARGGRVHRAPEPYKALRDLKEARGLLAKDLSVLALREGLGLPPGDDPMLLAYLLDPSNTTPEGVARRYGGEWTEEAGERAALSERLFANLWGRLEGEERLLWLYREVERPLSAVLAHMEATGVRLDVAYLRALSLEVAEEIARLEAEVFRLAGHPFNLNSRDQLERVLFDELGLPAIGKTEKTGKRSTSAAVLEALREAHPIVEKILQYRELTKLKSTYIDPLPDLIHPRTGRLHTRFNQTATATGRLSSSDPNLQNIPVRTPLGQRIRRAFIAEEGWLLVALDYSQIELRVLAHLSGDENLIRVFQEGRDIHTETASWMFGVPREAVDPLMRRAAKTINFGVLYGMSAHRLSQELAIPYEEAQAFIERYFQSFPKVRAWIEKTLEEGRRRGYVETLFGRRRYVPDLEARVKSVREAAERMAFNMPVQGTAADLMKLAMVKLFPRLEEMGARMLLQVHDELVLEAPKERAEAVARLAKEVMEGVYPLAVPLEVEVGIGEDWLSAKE

The term Kd denotes the concentration at which binding is half-saturated. Lower therefore signals tighter binding. Consider `O=C(O)C1=CC(=C(c2ccc(O)c(C(=O)O)c2)c2ccc(O)c(C(=O)O)c2)C=CC1=O` [ATA, aurintricarboxylic acid], for which the Kd turned out to be 9.02 µM in test [1], 82 µM in test [2] and 2.33 µM in test [3].
